Experimental data reported in patent US6939303B2, “Method and system of determining cardiac contractility” (Provecto Tecnico R-2000, Ca, priority 1999, dated 2005).
“And” between values parts separate entries of the source, which are not always exact repeats. Identical values can stand only once. Like-named read-outs stand apart in the source and are kept apart here.

Legend:
Conscious Dogs [1] = experiment: Contractile state with dobutamine and verapamil, data of Little et al. (Example 12); type: in vivo, dog; details: for Method of This Invention Avg. Value: Example 12, animals, control 100.0; for Change in contractile state, method of this invention: dogs
Procedure: (§1) The capability of the method of the present invention to assess cardiac contractility was evaluated using data from several experiments published in the literature and suitable for analysis. In this approach, afterload in the method was expressed as systolic pressure. Since different methodologies to measure cardiac contractility were used, the comparison between them was attained by analyzing the amount of changes (delta values) and were statistically treated using paired t test, ANOVA, correlation, and agreement between methods when applicable, as, for example, described in Lancet, Vol. 1, pages 307 to 310 (1986) by Bland et al.
Cardiovascular data was utilized from “Response of the Left Ventricular End-Systolic Pressure-Volume Relation in Conscious Dogs to a Wide Range of Contractile States,” Circulation, Vol. 78, pages 736 to 745 (1988) by Little et al. In this study, the contractile state was increased by dobutamine and decreased by verapamil.

[2] = tested on: patients, most of them with coronary artery disease; parameters: After_v, afterload (systolic pressure): unit not given beside the values; details: cited from earlier work; for Alteration in cardiac contractility, ESP/ESV / Alteration in cardiac contractility, ejection fraction: change vs control
normal subjects [3] = details: ten normal subjects; cited from earlier work
Conscious Dogs [4] = details: cited from earlier work; for ESP/ESV Avg. Value / EF Avg. Value: Example 12, animals; for EF Avg. Value: ejection fraction; for Change in contractile state, ESP/ESV / Change in contractile state, dP/dt / Change in contractile state, ejection fraction: dogs
normal subjects [5] = experiment: Cardiac contractility with methoxamine and dobutamine, echocardiographic data of Borow et al. (Example 4); type: in vivo, human; details: ten normal subjects
Procedure: as §1
Cardiovascular data was utilized from “Sensitivity of End-Systolic Pressure-Dimension and Pressure-Volume Relations to the Inotropic State in Humans,” Circulation, Vol. 65, pages 988 to 997 (1982) by Borow et al. Ten normal subjects were studied echocardiographically.

[6] = tested on: patients, most of them with coronary artery disease; experiment: Cardiac contractility under load or inotropic drugs, data of Takeuchi et al. (Examples 1 and 3); type: in vivo, human; parameters: key to C, cardiac contractility calculated with the method of this invention: relative contractility scale; control state C = 100; details: for Alteration in cardiac contractility, method of this invention: change vs control
Procedure: as §1
Hemodynamic data was utilized from Takeuchi et al. (“Single-Beat Estimation of the Slope of the End-Systolic Pressure-Volume Relation in the Human Left Ventricle”. Circulation, Vol. 83, pages 202 to 212 (1991)).
Initially, to calibrate the model of the method of this invention, the average normal (or control state) values were used: • Preload (end-diastolic volume)=70 (Pre_adj) • Afterload (Systolic pressure)=109 (After_adj) • Stroke volume (SV)=40 (SV_adj) • Cardiac contractility (C)=100 (C_adj) Thereafter, the C value in each case during angiotension infusion was calculated using its corresponding value of preload, afterload and stroke volume. For instance, for the first case receiving angiotenison, where:
The first step was to obtain the edge value for the tetrahedron for the control state using the standard mathematical equation for the volume of a tetrahedron: Edge=^3{overscore (6*sv—adj)} Therefore, for the control state, Edge=^3{overscore (6*40)}=6.214465 The next step was to obtain the unitary (u) values of preload (pre_u) and afterload (after_u).
Pre—u=68*(6.214465/70)=6.036908 [formula] In order to obtain the unitary (u) value of C, using the equation derived herein for cardiac contractility [formula] Therefore, the value of C (C_v) for Case 1 is: [formula] Thus, during angiotensin treatment, the corresponding C values for Cases 1 to 8 were calculated using the method of this invention to be as follows: […]
Cardiovascular data was utilized from “Single-beat Estimation of the Slope of the End-Systolic Pressure-Volume Relation in the Human Left Ventricle,” Circulation, Vol. 83, pages 202 to 212 (1991) by Takeuchi et al. This study involved 25 patients, most of them with coronary artery disease. […] Hemodynamic modifications were measured with high-fidelity micromanometer and ventriculography. […] The increase in cardiac contractility using dobutamine induced changes measured by the method of this invention was 23% in comparison to the measurements made with ejection fraction of 15% and with ESP/ESV of 32%.

Conscious Dog [7] = details: cited from earlier work; for Vcf Avg. Value (velocity of shortening) / dP/dT Avg. Value: Example 13, animals; for Change, Vcf / Change, dP/dt / Change, dP/dt DP40: conscious dog
Conscious Dog [8] = experiment: Changes in preload, afterload and inotropic state, data of Mahler et al. (Example 13); type: in vivo; details: for Method of This Invention Avg. Value: Example 13, animals, control 100.0; for Change, method of the present invention: conscious dog
Procedure: as §1
Cardiovascular data was utilized from “Effects of Changes in Preload, Afterload and Inotropic State on Ejection and Isovolumic Phase Measures of Contractility in the Conscious Dog,” Am. J. Cardiol., Vol. 35, pages 623 to 634 (1975) by Mahler et al. In this study, increase in preload was attained by Ringer's solution infusion, and rise of blood pressure with phenylephrine administration. […] The method of this invention was less sensitive than the other indices to measure changes in the inotropic state induced with isoproterenol or propranolol.

[9] = tested on: patients with coronary artery disease; experiment: Cardiac contractility with methoxamine and nitrates, data of Mehmel et al. (Example 6); type: in vivo, human; details: load modifications
Procedure: as §1
Cardiovascular data was utilized from “The Linearity of the End-Systolic Pressure-Volume Relationship in Man and its Sensitivity for Assessment of Left Ventricular Function,” Circulation, Vol. 63, pages 1216 to 1222 (1981) by Mehmel et al. This study was performed in patients with coronary artery disease and with catheter-tip manometer and ventricular angiogram measurements.

[10] = tested on: patients with coronary artery disease; details: load modifications; cited from earlier work
[11] = tested on: normal subjects and patients with coronary artery disease; experiment: Cardiac contractility with phenylephrine, data of El-Tobgi et al. (Example 5); type: in vivo, human
Procedure: as §1
Cardiovascular data was utilized from “Left Ventricular Function in Coronary Artery Disease,” J. Am. Coll. Cardiol., Vol. 3, pages 781 to 788 (1984) by El-Tobgi et al. In this study, normal subjects (group I) were compared with two groups of patients with coronary artery disease (groups II and III, the last one with ventricular dysfunction) and studied with tip-manometer catheter and ventriculography measurements. In basal conditions, the method of this invention behaves similar to the ejection fraction in detecting depression in cardiac contractility in group III (−17.2% and −18.0%, respectively).

[12] = tested on: normal subjects and patients with coronary artery disease; details: cited from earlier work
[13] = tested on: patients with hyperthyroidism; experiment: Cardiac contractility with propranolol, data of Merillon et al. (Example 8); type: in vivo, human; details: administration of propranolol
Procedure: as §1
Cardiovascular data was utilized from “Left Ventricular Function and Hyperthyroidism,” Br. Heart J., Vol. 46, pages 137 to 143 (1981) by Merillon et al. In patients with hyperthyroidism and invasive assessment of ventricular function, the administration of propranolol produced a fall in cardiac contractility. This change was similar when the inotropic state was assessed by means of P/V ratio (−28%), ejection fraction (−19%), dP/dt (−20%), and dP/dt/TP (−19%). Use of the method of the present invention gave a value for the change in cardiac contractility of −17%.

[14] = tested on: patients with hyperthyroidism; details: administration of propranolol; cited from earlier work
[15] = group I (normal subjects), increase in blood pressure with phenylephrine
[16] = group III (coronary artery disease with ventricular dysfunction), with the increase in blood pressure

CC(CCc1ccc(O)cc1)NCCc1ccc(O)c(O)c1 (stereo not drawn) [Dobutamine, dobutamine]
Method of This Invention Avg. Value (Conscious Dogs [1]): 111.7 | Change in contractile state, method of this invention (Conscious Dogs [1]): 11.7% | Alteration in cardiac contractility, ESP/ESV [2]: 32% | Alteration in cardiac contractility, ejection fraction [2]: 15% | Change in cardiac contractility, ESP/ESV (normal subjects [3]): 57.6% | Change in cardiac contractility, ejection fraction (normal subjects [3]): 12.8% | ESP/ESV Avg. Value (Conscious Dogs [4]): 18.5 mm Hg per ml | EF Avg. Value (Conscious Dogs [4]): 54.8 percentage | Change in contractile state, ESP/ESV (Conscious Dogs [4]): 150% | Change in contractile state, dP/dt (Conscious Dogs [4]): 34.1% | Change in contractile state, ejection fraction (Conscious Dogs [4]): 17.1% | Change in cardiac contractility, method of this invention (normal subjects [5]): 27.5% | Alteration in cardiac contractility, method of this invention [6]: 23%

CC(C)NCC(O)c1ccc(O)c(O)c1 (stereo not drawn) [Isoproterenol, isoproterenol]
Vcf Avg. Value (velocity of shortening) (Conscious Dog [7]): 2.83 circulation per second | dP/dT Avg. Value (Conscious Dog [7]): 5430 mm Hg per second | Change, Vcf (Conscious Dog [7]): 53% | Change, dP/dt (Conscious Dog [7]): 55% | Change, dP/dt DP40 (Conscious Dog [7]): 56% | Method of This Invention Avg. Value (Conscious Dog [8]): 120.3 | Change, method of the present invention (Conscious Dog [8]): 20.3%

COc1ccc(OC)c(C(O)C(C)N)c1 (stereo not drawn) [Methoxamine, methoxamine]
Change in cardiac contractility, ejection fraction (normal subjects [3]): −10.4% | Change in cardiac contractility, method of this invention [9]: 3.3% | Change in cardiac contractility, method of this invention (normal subjects [5]): 1.4% | Change measured using ejection fraction [10]: −5.0%

O=[N+]([O-])O [Nitrate]
Change in cardiac contractility, method of this invention [9]: −1.7% | Change measured using ejection fraction [10]: 5.0%

O=[N+]([O-])OCC(CO[N+](=O)[O-])O[N+](=O)[O-] [Nitroglycerin, nitroglycerin]
Alteration in cardiac contractility, ESP/ESV [2]: 9% | Alteration in cardiac contractility, ejection fraction [2]: 8.3% | Alteration in cardiac contractility, method of this invention [6]: −4%

CNC[C@H](O)c1cccc(O)c1 [Phenylephrine, phenylephrine]
Vcf Avg. Value (velocity of shortening) (Conscious Dog [7]): 1.61 circulation per second | dP/dT Avg. Value (Conscious Dog [7]): 3670 mm Hg per second | Change, Vcf (Conscious Dog [7]): −26% | Change, dP/dt (Conscious Dog [7]): −2% | Change, dP/dt DP40 (Conscious Dog [7]): 2% | Method of This Invention Avg. Value ([11]; Example 5, CAD): 107.3 | Method of This Invention Avg. Value ([11]; Example 5, CAD + VD): 84.2 | Method of This Invention Avg. Value ([11]; Example 5, Healthy): 110.4 | Change in cardiac contractility, method of the present invention [11, 15]: 10.4% | Fall in cardiac contractility, method of this invention [11, 16]: −15.8% | Method of This Invention Avg. Value (Conscious Dog [8]): 100.8 | Change, method of the present invention (Conscious Dog [8]): 0.8% | EF Avg. Value ([12]; Example 5, CAD + VD): 50.5 percentage | ESP/ESV Avg. Value ([12]; Example 5, CAD + VD): 5.0 mm Hg per ml | EF Avg. Value ([12]; Example 5, CAD): 64.0 percentage | ESP/ESV Avg. Value ([12]; Example 5, CAD): 9.9 mm Hg per ml | EF Avg. Value ([12]; Example 5, Healthy): 67.5 percentage | ESP/ESV Avg. Value ([12]; Example 5, Healthy): 10.4 mm Hg per ml | Change in ejection fraction [12, 15]: −0.1% | Fall in ESP/ESV [12, 16]: −51.9% | Fall in ejection fraction [12, 16]: −25.3%

CC(C)NCC(O)COc1cccc2ccccc12 (stereo not drawn) [Propranolol, propranolol]
Vcf Avg. Value (velocity of shortening) (Conscious Dog [7]): 1.80 circulation per second | dP/dT Avg. Value (Conscious Dog [7]): 3000 mm Hg per second | Change, Vcf (Conscious Dog [7]): −18% | Change, dP/dt (Conscious Dog [7]): −18% | Change, dP/dt DP40 (Conscious Dog [7]): −13% | Change in cardiac contractility, method of the present invention [13]: −17% | Method of This Invention Avg. Value (Conscious Dog [8]): 95.2 | Change, method of the present invention (Conscious Dog [8]): −4.8% | Change in inotropic state, ESP/ESV [14]: −32% | Change in inotropic state, P/V ratio [14]: −28% | Change in inotropic state, dP/dt [14]: −20% | Change in inotropic state, dP/dt/TP [14]: −19% | Change in inotropic state, ejection fraction [14]: −19% | Change in inotropic state, velocity of shortening [14]: −32%

COc1ccc(CCN(C)CCCC(C#N)(c2ccc(OC)c(OC)c2)C(C)C)cc1OC (stereo not drawn) [Verapamil, verapamil]
Method of This Invention Avg. Value (Conscious Dogs [1]): 77.1 | Change in contractile state, method of this invention (Conscious Dogs [1]): −23% | ESP/ESV Avg. Value (Conscious Dogs [4]): 5.1 mm Hg per ml | EF Avg. Value (Conscious Dogs [4]): 39.2 percentage | Change in contractile state, ESP/ESV (Conscious Dogs [4]): −38.5% | Change in contractile state, dP/dt (Conscious Dogs [4]): −39.9% | Change in contractile state, ejection fraction (Conscious Dogs [4]): −10.9%

angiotensin
Alteration in cardiac contractility, ESP/ESV [2]: 9.1% | Alteration in cardiac contractility, ejection fraction [2]: −10.3% | SV_v, stroke volume ([2]; individual cases 1 to 8 receiving angiotensin, one line per case, control mean 40): 41 and 38 and 30 and 34 and 40 and 50 and 36 and 60 | Pre_v, preload (end-diastolic volume) ([2]; individual cases 1 to 8 receiving angiotensin, one line per case, control mean 70): 68 and 119 and 66 and 78 and 79 and 82 and 95 and 93 | After_v, afterload (systolic pressure) ([2]; individual cases 1 to 8 receiving angiotensin, one line per case, control mean 109): 142 (2×) and 155 and 176 and 164 and 156 and 145 and 125 | Alteration in cardiac contractility, method of this invention [6]: 0.4% | C, cardiac contractility calculated with the method of this invention ([6]; individual cases 1 to 8 during angiotensin treatment, one line per case, control state C=100): 115.24 and 63.33 and 95.99 and 88.76 and 100.71 and 116.54 and 73.04 and 117.72
